Reference: ChEMBL document CHEMBL3638480, “Inhibitors” (2013)

Molecular target: Glutaminyl-peptide cyclotransferase (Homo sapiens, UniProt Q16769)
Assay: Spectrophotometic Assay: Spectrophotometic Assay: This novel assay was used to determine the kinetic parameters for most of the QC substrates. QC activity was analyzed spectrophotometrically using a continuous method, that was derived by adapting a previous discontinuous assay (Bateman, R.C.J. 1989 J Neurosci Methods 30, 23-28).

Chain of Glutaminyl-peptide cyclotransferase (Q16769 whole entry): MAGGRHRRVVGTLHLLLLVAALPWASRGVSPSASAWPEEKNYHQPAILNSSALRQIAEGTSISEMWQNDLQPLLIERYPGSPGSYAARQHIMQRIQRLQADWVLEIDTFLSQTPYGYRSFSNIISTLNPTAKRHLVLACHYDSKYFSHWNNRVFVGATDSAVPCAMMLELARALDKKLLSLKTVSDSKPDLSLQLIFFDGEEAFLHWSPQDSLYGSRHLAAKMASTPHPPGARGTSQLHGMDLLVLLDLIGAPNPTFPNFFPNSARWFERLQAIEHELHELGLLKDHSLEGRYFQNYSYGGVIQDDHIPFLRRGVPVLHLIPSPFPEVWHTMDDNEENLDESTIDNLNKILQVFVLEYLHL

Structure (SMILES)	IC50 [µM]
CCCOc1ccc([C@H]2[C@H](c3ccccc3)OC(=O)N2c2ccc3[nH]cnc3c2)cc1	< 10
COc1cc(F)c(C2CNC(=O)N2c2ccn3ccnc3c2)c(F)c1 (stereo not drawn)	< 10
CN(C)CCOc1ccc([C@H]2COC(=O)N2c2ccc3[nH]cnc3c2)cc1	< 10
O=C1OC[C@H](c2ccc(N3CCCCC3)cc2)N1c1ccn2ccnc2c1	< 10
Cc1cc(N2C(=O)OC[C@@H]2c2ccccc2)cc2nc[nH]c12	< 10
O=C1NCC(c2ccc(C(F)(F)F)cc2F)N1c1ccc2[nH]cnc2c1 (stereo not drawn)	< 10
CCCOc1ccc(C2CN(Cc3ccccc3)C(=O)N2c2ccc3[nH]cnc3c2)cc1 (stereo not drawn)	< 10
CN1CCN(c2cccc([C@H]3COC(=O)N3c3ccc4nc[nH]c4c3)c2)CC1	< 10
O=C1OC[C@H](c2ccccc2)N1c1ccc2[nH]cnc2c1	< 10
O=C1NCC(c2ccc3c(c2)OC(F)(F)O3)N1c1ccc2[nH]cnc2c1 (stereo not drawn)	< 10
O=C1NCC(c2ccc(N3CCN(c4ccccc4)CC3)cc2)N1c1ccn2ccnc2c1 (stereo not drawn)	< 10
O=C1OC[C@H](c2ccc(C3CCCCC3)cc2)N1c1ccn2ccnc2c1	< 10
CN(C)CCCc1ccc([C@@H]2COC(=O)N2c2ccc3[nH]cnc3c2)cc1	< 10
O=C1NCC(C2CCC(c3ccccc3)CC2)N1c1ccc2nc[nH]c2c1 (stereo not drawn)	< 10
O=C1OC[C@H](c2cc(F)cc(C(F)(F)F)c2)N1c1ccc2nc[nH]c2c1	< 10
O=C1NC[C@H](c2ccc(C3CCC(F)(F)CC3)cc2)N1c1ccc2[nH]cnc2c1	< 10
O=C1OC[C@H](CC2CCCCC2)N1c1ccc2[nH]cnc2c1	< 10
CCCCCOc1ccc(C2CNC(=O)N2c2ccc3nc[nH]c3c2)cc1 (stereo not drawn)	< 10
O=C1OC[C@H](c2cccc(F)c2)N1c1ccc2[nH]cnc2c1	< 10
O=C1NCC(c2ccc(N3CCN(c4ccccc4)CC3)cc2)N1c1ccc2nc[nH]c2c1 (stereo not drawn)	< 10
O=C1c2ccccc2[C@H](c2ccc(Cl)cc2)N1c1ccc2[nH]cnc2c1	< 10
O=C1OC[C@H](c2ccc(N3CCN(c4ccccc4)CC3)cc2)N1c1ccn2ccnc2c1	< 10
CCCOc1ccc(C2CN(CCCc3ccccc3)C(=O)N2c2ccc3[nH]cnc3c2)cc1 (stereo not drawn)	< 10
